Test results from US20240408169A1 (priority 2023, published 2024).
*1 amine or outer side, *2 acyl side, *3 side chain or, on linkers, in order; H or OH if unused. Where a SMILES comes first, the peptide text is derived from it. Bridges are numbered along the chain shown (N, C = ends). [ ]: non-standard residue; d: D form. The star is where a group is joined. X58 = CC(C)C(=O)N1CC=C(c2ccc(Cl)cc2C[C@@H](C(=O)[*:2])N(C)[*:1])CC1; X69 = CCOC(=O)N1CC=C(c2ccc(Cl)cc2C[C@@H](C(=O)[*:2])N(C)[*:1])CC1; NMePhe(5-Cl,2-O(2-Pym)) = CN[C@@H](Cc1cc(Cl)ccc1Oc1ncccn1)C(=O)O; X26 = CN([C@@H](Cc1cc(F)ccc1-c1cnn(C2CC2)c1)C(=O)[*:2])[*:1]; X35 = CN([C@@H](Cc1cc(Cl)ccc1-c1cnc2ccnn2c1)C(=O)[*:2])[*:1]; NMehhhLys(Me) = CN([C@@H](CCCCCCCN(C)[*:3])C(=O)[*:2])[*:1]; NMe3Pal(2-OiPr,5-Cl) = CN[C@@H](Cc1cc(Cl)cnc1OC(C)C)C(=O)O; X29 = CN([C@@H](Cc1cc(Cl)ccc1-c1cn[nH]c1)C(=O)[*:2])[*:1]; X44 = Cc1nnc(-c2ccc(Cl)cc2C[C@@H](C(=O)[*:2])N(C)[*:1])o1; NMe(hhhLys) = CN([C@@H](CCCCCCCN[*:3])C(=O)[*:2])[*:1]; Oxane2carbonyl(2R-CF3) = O=C([C@@]1(C(F)(F)F)CCCCO1)*; X28 = CN([C@@H](Cc1cc(Cl)cnc1OC1CCC1)C(=O)[*:2])[*:1]; Cyclobutanecarbonyl(1-CF3) = O=C(C1(C(F)(F)F)CCC1)*; cBuCO(3,3-F2-1-CF3) = O=C(C1(C(F)(F)F)CC(F)(F)C1)*; Pro(trans-4-F) = O=C(O)[C@@H]1C[C@@H](F)CN1; Gly(cPr) = N[C@H](C(=O)O)C1CC1

What was measured:
NCI-H1048 cells = test: MTT proliferation assay, NCI-H1048; format: cell-based; settings: 5 days compound exposure, 1:3 serial dilution starting at 10 μM;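 also: Dose-response in 96-well plates over 8 or 10 concentration points, with exposure spanning 3-4 cell doublings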
CyclinE1/CDK2 = target: T1, CyclinE1/CDK2 (Homo sapiens, UniProt P24864); test: Fluorescence Polarization (FP) competitive binding assay, Cyclin E1/Cdk2; settings: 10 nM Cyclin E1/Cdk2, 2 nM FAM probe; average of 2-3 independent experiments; read-out: Cyclin E FP IC50;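 also: readings taken after two-hour equilibration at room temperature in HEPES buffer with NaCl, DTT, NP-40 and BSA, IC50 fitted from eight-concentration serial dilution series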
T1 construct: purchased Eurofins, discovery 14-475

WI-38 cells = test: MTT proliferation assay, WI-38; format: cell-based; settings: 3 days compound exposure, 1:3 serial dilution starting at 10 μM;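 also: Eight- or ten-point dilution series, with exposure length chosen to span about three to four cell doublings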
CyclinB1/CDK1 = target: T2, CyclinB1/CDK1 (Homo sapiens, UniProt P14635); test: Fluorescence Polarization (FP) competitive binding assay, Cyclin B1/Cdk1; settings: 10 nM Cyclin B1/Cdk1, 2 nM FAM probe; average of 2-3 independent experiments; read-out: Cyclin B FP IC50;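 also: fluorescence polarization read after equilibration at room temperature, with IC50 taken from serially diluted dose-response curves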
T2 construct: purchased Eurofins, discovery 14-450

OVCAR3 cells = test: MTT proliferation assay, OVCAR3; format: cell-based; settings: 5 days compound exposure, 1:3 serial dilution starting at 10 μM;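 also: compound given as an 8- or 10-point series, one day after plating, with exposure covering roughly 3-4 cell doublings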
CyclinA2/CDK2 = target: T3, CyclinA2/CDK2 (Homo sapiens, UniProt P20248); test: Fluorescence Polarization (FP) competitive binding assay, Cyclin A2/Cdk2; settings: 8 nM Cyclin A2/Cdk2, 2 nM FAM probe; average of 2-3 independent experiments; read-out: Cyclin A FP IC50;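 also: plates equilibrated two hours at room temperature before polarization reading, IC50 fitted from eight-concentration compound titration curves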
T3 construct: purchased CRELUX Protein Services

| Compound | GI50 (NCI-H1048 cells) [nM] | IC50 (CyclinE1/CDK2) [nM] | GI50 (WI-38 cells) [nM] | IC50 (CyclinB1/CDK1) [nM] | GI50 (OVCAR3 cells) [nM] | IC50 (CyclinA2/CDK2) [nM] |
| --- | --- | --- | --- | --- | --- | --- |
| CC(C)C[C@@H]1NC(=O)[C@@H](N(C)C(=O)[C@@H](NC(=O)[C@@H]2C[C@@H](F)CN2C(=O)C2(C(F)(F)F)CCC2)C2CC2)CCCCCCCNC(=O)[C@H](Cc2cc(Cl)cnc2OC(C)C)N(C)C1=O [Example 138] ({Cyclobutanecarbonyl(1-CF3)}-[Pro(trans-4-F)][Gly(cPr)][NMe(hhhLys)]L[NMe3Pal(2-OiPr,5-Cl)]; lactam 3-C) | 200 | 110 | 6670 | 20 | 280 | 30 |
| CC(C)C[C@@H]1NC(=O)[C@@H](N(C)C(=O)[C@@H](NC(=O)[C@@H]2C[C@@H](F)CN2C(=O)C2(C(F)(F)F)CCC2)C2CC2)CCCCCCCN(C)C(=O)[C@H](Cc2cc(Cl)cnc2OC2CCC2)N(C)C1=O [Example 139] ({Cyclobutanecarbonyl(1-CF3)}-[Pro(trans-4-F)][Gly(cPr)][NMehhhLys(Me)]L[X28]; lactam 3-C) | 70 | 100 | 6420 | 20 | 150 | 20 |
| CC(C)C[C@@H]1NC(=O)[C@@H](N(C)C(=O)[C@@H](NC(=O)[C@@H]2C[C@@H](F)CN2C(=O)C2(C(F)(F)F)CC(F)(F)C2)C2CC2)CCCCCCCN(C)C(=O)[C@H](Cc2cc(Cl)cnc2OC2CCC2)N(C)C1=O [Example 140] ({cBuCO(3,3-F2-1-CF3)}-[Pro(trans-4-F)][Gly(cPr)][NMehhhLys(Me)]L[X28]; lactam 3-C) | 50 | 120 | 9250 | 20 | 130 | 20 |
| CC(C)C[C@@H]1NC(=O)[C@@H](N(C)C(=O)[C@@H](NC(=O)[C@@H]2C[C@@H](F)CN2C(=O)C2(C(F)(F)F)CCC2)C2CC2)CCCCCCCNC(=O)[C@H](Cc2cc(Cl)cnc2OC2CCC2)N(C)C1=O [Example 141] ({Cyclobutanecarbonyl(1-CF3)}-[Pro(trans-4-F)][Gly(cPr)][NMe(hhhLys)]L[X28]; lactam 3-C) | 90 | 100 | 3390 | 20 | 190 | 40 |
| CC(C)C[C@@H]1NC(=O)[C@@H](N(C)C(=O)[C@@H](NC(=O)[C@@H]2C[C@@H](F)CN2C(=O)C2(C(F)(F)F)CC(F)(F)C2)C2CC2)CCCCCCCNC(=O)[C@H](Cc2cc(Cl)cnc2OC2CCC2)N(C)C1=O [Example 142] ({cBuCO(3,3-F2-1-CF3)}-[Pro(trans-4-F)][Gly(cPr)][NMe(hhhLys)]L[X28]; lactam 3-C) | 110 | 150 | 10200 | 20 | 190 | 40 |
| CC(C)C[C@@H]1NC(=O)[C@@H](N(C)C(=O)[C@@H](NC(=O)[C@@H]2C[C@@H](F)CN2C(=O)C2(C(F)(F)F)CC(F)(F)C2)C2CC2)CCCCCCCN(C)C(=O)[C@H](Cc2cc(Cl)ccc2C2=CCN(C(=O)C(C)C)CC2)N(C)C1=O [Example 143] ({cBuCO(3,3-F2-1-CF3)}-[Pro(trans-4-F)][Gly(cPr)][NMehhhLys(Me)]L[X58]; lactam 3-C) | 10 | 940 | 5180 | 20 | 20 | 20 |
| CCOC(=O)N1CC=C(c2ccc(Cl)cc2C[C@H]2C(=O)N(C)CCCCCCC[C@H](N(C)C(=O)[C@@H](NC(=O)[C@@H]3C[C@@H](F)CN3C(=O)C3(C(F)(F)F)CC(F)(F)C3)C3CC3)C(=O)N[C@@H](CC(C)C)C(=O)N2C)CC1 [Example 145] ({cBuCO(3,3-F2-1-CF3)}-[Pro(trans-4-F)][Gly(cPr)][NMehhhLys(Me)]L[X69]; lactam 3-C) | 70 | 1300 | 10100 | 20 | 80 | 20 |
| CC(C)C[C@@H]1NC(=O)[C@@H](N(C)C(=O)[C@@H](NC(=O)[C@@H]2C[C@@H](F)CN2C(=O)[C@@]2(C(F)(F)F)CCCCO2)C2CC2)CCCCCCCN(C)C(=O)[C@H](Cc2cc(F)ccc2-c2cnn(C3CC3)c2)N(C)C1=O [Example 147] ({Oxane2carbonyl(2R-CF3)}-[Pro(trans-4-F)][Gly(cPr)][NMehhhLys(Me)]L[X26]; lactam 3-C) | 10 | 100 | 1240 | 20 | 10 | 20 |
| CC(C)C[C@@H]1NC(=O)[C@@H](N(C)C(=O)[C@@H](NC(=O)[C@@H]2C[C@@H](F)CN2C(=O)C2(C(F)(F)F)CCC2)C2CC2)CCCCCCCN(C)C(=O)[C@H](Cc2cc(Cl)ccc2Oc2ncccn2)N(C)C1=O [Example 159] ({Cyclobutanecarbonyl(1-CF3)}-[Pro(trans-4-F)][Gly(cPr)][NMehhhLys(Me)]L[NMePhe(5-Cl,2-O(2-Pym))]; lactam 3-C) | 10 | 200 | 9450 | 20 | 20 | 80 |
| Cc1nnc(-c2ccc(Cl)cc2C[C@H]2C(=O)NCCCCCCC[C@H](N(C)C(=O)[C@@H](NC(=O)[C@@H]3C[C@@H](F)CN3C(=O)C3(C(F)(F)F)CC(F)(F)C3)C3CC3)C(=O)N[C@@H](CC(C)C)C(=O)N2C)o1 [Example 160] ({cBuCO(3,3-F2-1-CF3)}-[Pro(trans-4-F)][Gly(cPr)][NMe(hhhLys)]L[X44]; lactam 3-C) | 20 | 270 | 11500 | 20 | 20 | 20 |
| CC(C)C[C@@H]1NC(=O)[C@@H](N(C)C(=O)[C@@H](NC(=O)[C@@H]2C[C@@H](F)CN2C(=O)C2(C(F)(F)F)CC(F)(F)C2)C2CC2)CCCCCCCN(C)C(=O)[C@H](Cc2cc(Cl)ccc2-c2cn[nH]c2)N(C)C1=O [Example 167] ({cBuCO(3,3-F2-1-CF3)}-[Pro(trans-4-F)][Gly(cPr)][NMehhhLys(Me)]L[X29]; lactam 3-C) | 10 | 280 | 19700 | 20 | 10 | 20 |
| CC(C)C[C@@H]1NC(=O)[C@@H](N(C)C(=O)[C@@H](NC(=O)[C@@H]2C[C@@H](F)CN2C(=O)C2(C(F)(F)F)CC(F)(F)C2)C2CC2)C/C=C\CCCCN(C)C(=O)[C@H](Cc2cc(Cl)ccc2-c2cnn(C)c2)N(C)C1=O [Example 168] | 10 | 160 | 13100 | 20 | 10 | 20 |
| CC(C)C[C@@H]1NC(=O)[C@@H](N(C)C(=O)[C@@H](NC(=O)[C@@H]2C[C@@H](F)CN2C(=O)C2(C(F)(F)F)CC(F)(F)C2)C2CC2)CCCCCCCN(C)C(=O)[C@H](Cc2cc(Cl)ccc2-c2cnc3ccnn3c2)N(C)C1=O [Example 172] ({cBuCO(3,3-F2-1-CF3)}-[Pro(trans-4-F)][Gly(cPr)][NMehhhLys(Me)]L[X35]; lactam 3-C) | 30 | 2430 | 13700 | 20 | 60 | 60 |
| CC(C)C[C@@H]1NC(=O)[C@@H](N(C)C(=O)[C@@H](NC(=O)[C@@H]2C[C@@H](F)CN2C(=O)C2(C(F)(F)F)CCC2)C2CC2)C/C=C\CCCCN(C)C(=O)[C@H](Cc2cc(Cl)ccc2-c2cnn(C)c2)N(C)C1=O [Example 173] | 10 | 100 | 12700 | 20 | 10 | 20 |
| CC(C)C[C@@H]1NC(=O)[C@@H](N(C)C(=O)[C@@H](NC(=O)[C@@H]2C[C@@H](F)CN2C(=O)[C@@]2(C(F)(F)F)CCCCO2)C2CC2)C/C=C\CCCCN(C)C(=O)[C@H](Cc2cc(Cl)ccc2-c2cnn(C)c2)N(C)C1=O [Example 174] | 10 | 100 | 6980 | 20 | 10 | 20 |
| CC(C)C[C@@H]1NC(=O)[C@@H](N(C)C(=O)[C@@H](NC(=O)[C@@H]2C[C@@H](F)CN2C(=O)C2(C(F)(F)F)CC(F)(F)C2)C2CC2)C/C=C\CCCCN(C)C(=O)[C@H](Cc2cc(Cl)ccc2-c2cnn(C3CC3)c2)N(C)C1=O [Example 175] | 10 | 130 | 6850 | 20 | 10 | 20 |
